# Measured values published in paper PMC11011246 (Cell, 2024).
# What was measured:
# [1] = system: NrasG12V Trp53-/- HCC cells; assay: HCC cell proliferation and trypan blue cell death; type: cell-based, murine; settings: HRX215 10 μM vs DMSO, up to 72 h
# [2] = IND-enabling GLP safety pharmacology; type: in vivo, rats, dogs; settings: GLP studies
# pigs = assay: 85% hepatectomy; type: in vivo, pig
# C57BL/6 WT mice [3] = assay: Partial hepatectomy in wildtype mice; settings: 48 h after partial hepatectomy
# [4] = 4-week GLP toxicity study; settings: both, Wistar Han, rat, in vivo, po
# [5] = Pharmacokinetics of HRX215 in mice; type: in vivo, C57BL/6 wildtype mice; settings: 30 mg/kg p.o.
# [6] = First-in-human phase I trial, pharmacokinetics; type: in vivo; settings: for Tmax: male, plasma, oral, 50 mg, 50 mg single dose
# C57BL/6 WT mice [7] = assay: CCl4 liver-damage; settings: 10 mg/kg p.o., CCl4 3 weeks, 48 h after PH
# C57BL/6 WT mice [8] = assay: 4-week treatment/toxicity study in wildtype mice; type: in vivo, mouse; settings: 10 mg/kg, vs vehicle
# C57BL/6 WT mice [9] = assay: Short-term GAN-NASH model; type: in vivo, mouse; settings: 10 mg/kg daily, 12 weeks, vs vehicle
# C57BL/6 WT mice [10] = assay: Short-term CCl4 liver damage model; type: in vivo, mouse; settings: 0.4, 2, 10 mg/kg p.o., 48 h after CCl4, vs vehicle
# C57BL/6 WT mice [11] = assay: Long-term GAN-NASH HCC model; type: in vivo, mouse
# healthy male volunteers = assay: First-in-human phase I trial, safety and tolerability; type: in vivo
# [12] = 4-week GLP toxicity study; settings: both, beagle, dog, in vivo, po
# [13] = system: NrasG12V Cdkn2aARF-/- HCC cells; assay: HCC cell proliferation and trypan blue cell death; type: cell-based, murine; settings: HRX215 10 μM vs DMSO, up to 72 h
smiles,measurement,setting,value
CCCS(=O)(=O)Nc1c(F)ccc(C(=O)c2n[nH]c3ncc(-c4ccncc4)cc23)c1F [HRX215],cell proliferation,[1],significantly reduced cell proliferation
same,"effect on the cardiovascular, neurological, or respiratory system",[2],absence of any effect
same,aspartate aminotransferase,"pigs; pigs, 85% hepatectomy",only transiently increased after surgery
same,bilirubin plasma levels,"pigs; pigs, 85% hepatectomy",only a transient rise with a subsequent drop
same,intracranial pressure (ICP) after surgery,"pigs; pigs, 85% hepatectomy",did not show an increase in ICP values
same,plasma ammonia,"pigs; pigs, 85% hepatectomy",prevented an increase of plasma ammonium
same,animals with normal behavior that survived,pigs; post-surgery treatment group (start 12 h after surgery),5 out of 6
same,animals with normal behavior that survived,pigs; pre-surgery treatment group (start 12 h before surgery),4 out of 6
same,proliferating hepatocytes (Ki67),C57BL/6 WT mice [3]; 0.4 mg/kg p.o.,15.38%
same,proliferating hepatocytes (Ki67),C57BL/6 WT mice [3]; 2 mg/kg p.o.,15.15%
same,proliferating hepatocytes (Ki67),C57BL/6 WT mice [3]; 10 mg/kg p.o.,26.3%
same,NOAEL at 4 weeks,[4],300 mg/kg/day
same,"t(1/2), elimination half-life",[5],3.4 to 3.9 h
same,exposure (Cmax and AUC) versus dose,[6]; ascending doses,increased proportionally with ascending doses
same,Tmax,[6]; fasting,1.2 h
same,Tmax,[6]; fed,3.9 h
same,hepatocyte proliferation upon partial hepatectomy in fibrotic livers,C57BL/6 WT mice [7],enhance hepatocyte proliferation
same,complete blood counts,C57BL/6 WT mice [8]; 4 weeks,No significant changes were detected
same,untargeted metabolomics of plasma and liver,C57BL/6 WT mice [8],no safety relevant changes were detected
same,numbers of senescent cells in NASH livers,C57BL/6 WT mice [9],found no differences
same,hepatocyte death (TUNEL),C57BL/6 WT mice [10],significantly reduced hepatocyte death
same,hepatic inflammation and hepatocyte ballooning,"C57BL/6 WT mice [11]; 10 mg/kg daily, 12 weeks",no reduction of hepatic inflammation and hepatocyte ballooning
same,hepatocyte proliferation (Ki67),"C57BL/6 WT mice [11]; 10 mg/kg daily, 12 weeks",slightly increased hepatocyte proliferation
same,liver fibrosis,"C57BL/6 WT mice [11]; 10 mg/kg daily, 12 weeks","found reduced in HRX215 treated livers, but results missed statistical significance"
same,overall hepatic lipid content,"C57BL/6 WT mice [11]; 10 mg/kg daily, 12 weeks",significant reduction of the overall hepatic lipid content
same,tumor size,"C57BL/6 WT mice [11]; 10 mg/kg daily, 12 weeks",tendency toward a reduction of tumor size
same,number of tumor nodules per liver,"C57BL/6 WT mice [11]; 10 mg/kg daily, 12 weeks, vs baseline and vehicle",did not result in a higher number of tumor nodules per liver
same,numbers of dysplastic premalignant lesions,"C57BL/6 WT mice [11]; 10 mg/kg daily, 12 weeks, vs vehicle",did not reveal significant differences
same,NAS score development,C57BL/6 WT mice [11]; non-tumor bearing liver parts,more animals with an improved NAS score and less animals with a worsened NAS score
same,"mild to moderate adverse effects, percentage","healthy male volunteers; HRX215 groups, n = 36",36.1%
same,number of mild to moderate adverse effects (subjects/group),"healthy male volunteers; HRX215 groups, n = 36",13/36
same,severe or serious adverse events,healthy male volunteers; single and multiple doses 5-500 mg,no severe or serious adverse events were reported
same,complete blood counts,healthy male volunteers; vs placebo,no significant differences
same,NOAEL at 4 weeks,[12],250 mg/kg/day
same,cell proliferation,[13],significantly reduced cell proliferation
